From PMC6713628 (Investigational new drugs, 2019)
Where two headings read alike, the source gives them in different places.

What was measured:
white blood cells = experiment: Emax model of percent decrease of WBC from baseline to nadir versus exposure; format: in vivo, cancer patients with solid tumors (humans)
platelets = format: in vivo, cancer patients with solid tumors (humans); conditions: sigmoid Emax model
[1] = lactone form; ref 32 (Leggas et al., 2009); cited from earlier work
[2] = more lipophilic than camptothecin; cited from earlier work
UGT1A1 = conditions: primarily hepatic UGT1A1; cited from earlier work
[3] = for IIV of clearance: univariate analysis

## CC[C@@]1(O)C(=O)OCc2c1cc1n(c2=O)Cc2c-1nc1ccc(O)cc1c2[Si](C)(C)C(C)(C)C [AR-67, 7-t-butyldimethylsilyl-10-hydroxycamptothecin]
White blood cells; AUC0-∞ as independent variable, hyperbolic Emax model, 22 patients, Cycle 1
  AUC ED50, percent decrease of WBC: 397.6 ng·h/mL
White blood cells; Cmax as independent variable, sigmoid Emax model
  Cmax ED50, percent decrease of WBC: 0.3268 µg/mL
platelets; AUC0-∞ as independent variable, 22 patients, Cycle 1
  AUC ED50, percent decrease of platelets: 276.8 ng·h/mL
platelets; Cmax as independent variable
  Cmax ED50, percent decrease of platelets: 0.2811 µg/mL
[1]
  overall protein binding, lactone: 95.4%
[2]
  lipophilicity relative to camptothecin: about 25 times
UGT1A1
  in vitro interaction with UGT1A1: weak
[3]; V1=V1TV×(AGE/62)^θ, original dataset
  AGE on V1 (covariate effect exponent), estimate: 3.36
[3]; before incorporation of age into the model
  Interindividual variability in V1: 118%
[3]; bootstrap n=1000 datasets
  AGE on V1, bootstrap median: 3.48
  CL, bootstrap median: 31.9 L/h
  Q, bootstrap median: 29.0 L/h
  V1, bootstrap median: 6.65 L
  V2, bootstrap median: 25.8 L
  ω2 V1, bootstrap median: 0.856
[3]; final model
  Interindividual variability (CV%) of population CL: 29.1%
[3]; final model, original dataset
  V2 (peripheral volume), population estimate: 25.0 L
  ω2 CL (interindividual variability), estimate: 0.0849
  ω2 V1 (interindividual variability), estimate: 0.957
[3]; final model, original dataset, typical value for subjects aged 62 years
  V1 (central volume), population estimate: 6.83 L
[3]; final model, with age as covariate
  Interindividual variability (CV%) of population V1: 97.8%
[3]; BSA included as covariate on CL
  IIV of clearance: 25.5%
[3]; before inclusion of BSA
  IIV of clearance: 29.2%
